Test results published in patent US10548858B2, “Inhibition of sphingosine 1-phosphate receptor for treatment and prevention of lymphedema” (Memorial Sloan Kettering Cancer Center, priority 2016, dated 2020).
“Also recorded” adds a separate entry of the source.

Tests used:
lymphedema = conditions: cited from earlier work
CD4+ cells = assay: CD4+ cell flow cytometry of lymph nodes and hind limb skin after PLND and adoptive transfer, with or without FTY720; type: in vivo, mouse; conditions: CD4KO mice, PLND, 24 hours after adoptive transfer of CD4+ cells
Experimental: Metzler et al., Int. Immunol. 20:633 (2008); Kharel et al., J. Biol. Chem. 280:36865 (2005). Control animals were treated with vehicle alone.
To induce lymphedema, we used a mouse tail model in which a 5 vmm portion of the mid-tail is excised and the deep lymphatic collecting vessels are ligated. Avraham et al., Am. J. Pathol. 177:3202 (2010); Clavin et al., Am. J. Physiol. Heart Circ. Physiol. 295:H2113 (2008); Rutkowski et al., Microvasc. Res. 72:161 (2006); Tabibiazar et al., PloS Med 3:e254 (2006). This model reliably results in sustained tail swelling, severe impairment in lymphatic function, and histopathologic features consistent with clinical lymphedema, lasting as long as 10 weeks after surgery. Avraham et al., Am. J. Pathol. 177:3202 (2010); Clavin et al., Am. J. Physiol. Heart Circ. Physiol. 295:H2113 (2008); Rutkowski et al., Microvasc. Res. 72:161 (2006); Tabibiazar et al., PloS Med 3:e254 (2006). […]
Culture expanded naïve CD4^+ cells (1×10^7) were suspended in 100 μL of sterile phosphate buffered saline (PBS) and adoptively transferred to CD4KO mice by weekly retro-orbital sinus injections beginning two weeks after surgery for 2 or 4 weeks (for PLND or lymphatic tail ablation, respectively), followed by sacrifice. […] Delivery of CD4^+ cells was confirmed using flow cytometry to quantify CD4^+ cells in single cell suspensions created from spleens and aortic lymph nodes. […]

[1] = test system: lymphedema (mouse tail lymphatic ablation); assay: Mouse tail skin/lymphatic ablation model of lymphedema, 6 weeks of treatment; type: in vivo; conditions: wild-type mice, 6 weeks after lymphatic ablation
Text: To determine if FTY720 treatment can be useful for treating lymphedema, we next performed tail skin/lymphatic ablations on wild-type mice and treated experimental animals with FTY720 and control animals with vehicle only for 6 weeks.
To induce lymphedema, we used a mouse tail model in which a 5 vmm portion of the mid-tail is excised and the deep lymphatic collecting vessels are ligated. Avraham et al., Am. J. Pathol. 177:3202 (2010); Clavin et al., Am. J. Physiol. Heart Circ. Physiol. 295:H2113 (2008); Rutkowski et al., Microvasc. Res. 72:161 (2006); Tabibiazar et al., PloS Med 3:e254 (2006). This model reliably results in sustained tail swelling, severe impairment in lymphatic function, and histopathologic features consistent with clinical lymphedema, lasting as long as 10 weeks after surgery. Avraham et al., Am. J. Pathol. 177:3202 (2010); Clavin et al., Am. J. Physiol. Heart Circ. Physiol. 295:H2113 (2008); Rutkowski et al., Microvasc. Res. 72:161 (2006); Tabibiazar et al., PloS Med 3:e254 (2006). In other experiments, animals were randomized to either PLND or sham surgery. PLND was performed as previously reported, removing the nodes, surrounding fat pad, and afferent/efferent lymphatics. Control animals underwent sham popliteal surgeries where a skin incision was made in the area of the popliteal lymph node without nodal resection. Although sustained lymphedema is not observed here, it has previously been described as a means of analyzing regeneration of collateral lymphatics and collecting lymphatic pumping capacity. Proulx et al., Biomaterials 34:5128 (2013); Sharma et al., Am. J. Physiol. Heart and Circul. Physiol. 292:H3109 (2007).
In other experiments, WT mice underwent tail or popliteal lymphatic ablation surgeries and were subsequently randomized to treatment with FTY720 (Sigma Aldrich, St. Louis, Mo.), an […] modulator that blocks lymphocyte egress from lymph nodes. Metzler et al., Int. Immunol. 20:633 (2008); Kharel et al., J. Biol. Chem. 280:36865 (2005). Briefly, FTY720 was dissolved in water as per the manufacturer's recommendations, and supplied ad libitum starting the day of lymphatic ablation. Mice received an estimated 1.25 mg/kg/day for 2 or 6 weeks (for PLND or tail surgeries, respectively) until tissues were harvested. […]
Tail volumes were calculated weekly using the truncated cone formula. […]
Subcutaneous adipose tissue thickness measurements were analyzed by 2 blinded reviewers (n=5-6 animals/group) using standardized cross-sections by measuring from the width of tissues bounded by the reticular dermis to the deep fascia in 4 standardized regions per section. Capillary lymphatic vessel area was quantified as previously described using Panoramic viewer software (3DHistech, Budapest, Hungary) in four 40× high-power fields/animal per group. […]

[2] = FTY720 estimated 1.25 mg/kg/day in water, vs vehicle

Row | Structure (SMILES) | clinical success in patients with lymphedema (lymphedema) | toxicity (lymphedema; patients with lymphedema) | CD4+ cells in the hind limb skin (CD4+ cells; vs vehicle treated PLND mice) | accumulation of CD4+ cells in the inguinal lymph node (CD4+ cells; vs vehicle, FTY720 in drinking water, estimated 1.25 mg/kg/day) | tail fibrosis (gross analysis) [1, 2] | tail swelling (gross analysis) [1, 2] | fibroadipose tissue deposition (thickness) ([1]; cross-sectional histology, vs vehicle control) | tail volumes (percentage change) ([1]; vs vehicle control)
1 | O=c1ccc2ccccc2o1 [Coumarin] | modest success | significant toxicity including liver failure and death |  |  |  |  |  | 
2 | CCCCCCCCc1ccc(CCC(N)(CO)CO)cc1 [FTY720, 2-amino-2-[2-(4-octylphenyl)ethyl]propane-1,3-diol] |  |  | decreased the number of these cells in hind limb skin; also recorded: marked decrease | prevented release of CD4+ cells from the lymph node; also recorded: increased significantly | lack of swelling and fibrosis; also recorded: markedly decreased | lack of swelling; also recorded: markedly decreased | decreased fibroadipose tissue deposition; also recorded: significant decreases | lack of swelling; also recorded: significant decreases
